Results from ChEMBL document CHEMBL1150189, “Determination of cardenolides in hairy root cultures of Digitalis lanata by enzyme-linked immunosorbent assay” (J Nat Prod, 1990).

species on record: Mus musculus; experiment: Binding affinity to mouse Monoclonal antibody DIG 64.2B.5 by ELISA relative to digoxin

SMILES	Ratio IC50
C[C@H]1O[C@@H](O[C@H]2CC[C@@]3(C)[C@H](CC[C@@H]4[C@@H]3C[C@@H](O)[C@]3(C)[C@@H](C5=CC(=O)OC5)CC[C@]43O)C2)C[C@H](O)[C@@H]1O[C@H]1C[C@H](O)[C@H](O[C@H]2C[C@H](O)[C@H](O[C@@H]3O[C@H](CO)[C@@H](O)[C@H](O)[C@H]3O)[C@@H](C)O2)[C@@H](C)O1	1.8
CC(=O)O[C@H]1C[C@H](O[C@H]2[C@@H](O)C[C@H](O[C@H]3[C@@H](O)C[C@H](O[C@H]4CC[C@@]5(C)[C@H](CC[C@@H]6[C@@H]5C[C@@H](O)[C@]5(C)[C@@H](C7=CC(=O)OC7)CC[C@]65O)C4)O[C@@H]3C)O[C@@H]2C)O[C@H](C)[C@H]1O[C@@H]1O[C@H](CO)[C@@H](O)[C@H](O)[C@H]1O	1.2
C[C@@H]1CC[C@@]2(OC1)O[C@H]1[C@@H](O)[C@H]3[C@@H]4CC[C@H]5C[C@@H](O[C@@H]6O[C@H](CO)[C@H](O[C@@H]7O[C@H](CO)C(O)[C@H](O[C@@H]8OC[C@@H](O)[C@H](O)[C@H]8O)[C@H]7O[C@@H]7O[C@H](CO)[C@H](O)[C@H](O[C@@H]8O[C@H](CO)[C@@H](O)[C@H](O)[C@H]8O)[C@H]7O)[C@H](O)[C@H]6O)[C@H](O)C[C@]5(C)[C@H]4CC[C@]3(C)[C@H]1[C@@H]2C (stereo partly specified)	> 6e+06
C[C@]12CC[C@H](O)C[C@H]1CC[C@@H]1[C@@H]2C[C@@H](O)[C@]2(C)[C@@H](C3=CC(=O)OC3)CC[C@]12O	1.2
C[C@]12CC[C@H](O)C[C@H]1CC[C@@H]1[C@@H]2CC[C@]2(C)[C@@H](C3=CC(=O)OC3)[C@@H](O)C[C@]12O	> 540000
C[C@]12CC[C@H](O)C[C@H]1CC[C@@H]1[C@@H]2CC[C@]2(C)[C@@H](C3=CC(=O)OC3)CC[C@]12O	23000
CO[C@@H]1[C@@H](O)[C@H](O[C@H]2CC[C@@]3(C)[C@H](CC[C@@H]4[C@@H]3CC[C@]3(C)[C@@H](C5=CC(=O)OC5)[C@@H](O)C[C@]43O)C2)O[C@H](C)[C@@H]1O[C@@H]1O[C@H](CO)[C@@H](O)[C@H](O)[C@H]1O	16000
C[C@H]1O[C@@H](O[C@H]2[C@@H](O)C[C@H](O[C@H]3[C@@H](O)C[C@H](O[C@H]4CC[C@@]5(C)[C@H](CC[C@@H]6[C@@H]5CC[C@]5(C)[C@@H](C7=CC(=O)OC7)CC[C@]65O)C4)O[C@@H]3C)O[C@@H]2C)C[C@H](O)[C@@H]1O	2800
C[C@H]1OC(O)C[C@H](O)[C@@H]1O (stereo partly specified)	> 1.2e+08
C[C@@H]1O[C@@H](O[C@H]2C[C@@H](O)[C@]3(CO)[C@H]4[C@H](O)C[C@]5(C)[C@@H](C6=CC(=O)OC6)CC[C@]5(O)[C@@H]4CC[C@]3(O)C2)[C@H](O)[C@H](O)[C@H]1O	> 6e+06
C[C@H]1O[C@@H](O[C@H]2[C@@H](O)C[C@H](O[C@H]3[C@@H](O)C[C@H](O[C@H]4CC[C@@]5(C)[C@H](CC[C@@H]6[C@@H]5CC[C@]5(C)[C@@H](C7=CC(=O)OC7)[C@@H](O)C[C@]65O)C4)O[C@@H]3C)O[C@@H]2C)C[C@H](O)[C@@H]1O	46
